# Experimental data taken from ChEMBL document CHEMBL1201862, “PubChem BioAssay data set” (2004).
# The source made the active and inactive calls.
# What was measured:
# [1] = Counterscreen for IDE inhibitors: Luminescence-based cell-based high throughput dose response assay to identify compounds that are cytotoxic to HEK cells. [Related pubchem assays: 434962 (Primary screen (IDE inhibitors in singlicate)), 449730 (Counterscreen (Cytotoxicity in triplicate)), 435028 (Confirmation (IDE inhibitors in triplicate)) …; format: functional; conditions: HEK293
# [2] = molecular target: T1, Histone-lysine N-methyltransferase NSD2 (Homo sapiens, UniProt O96028); format: biochemical
# T1 sequence (O96028 whole entry): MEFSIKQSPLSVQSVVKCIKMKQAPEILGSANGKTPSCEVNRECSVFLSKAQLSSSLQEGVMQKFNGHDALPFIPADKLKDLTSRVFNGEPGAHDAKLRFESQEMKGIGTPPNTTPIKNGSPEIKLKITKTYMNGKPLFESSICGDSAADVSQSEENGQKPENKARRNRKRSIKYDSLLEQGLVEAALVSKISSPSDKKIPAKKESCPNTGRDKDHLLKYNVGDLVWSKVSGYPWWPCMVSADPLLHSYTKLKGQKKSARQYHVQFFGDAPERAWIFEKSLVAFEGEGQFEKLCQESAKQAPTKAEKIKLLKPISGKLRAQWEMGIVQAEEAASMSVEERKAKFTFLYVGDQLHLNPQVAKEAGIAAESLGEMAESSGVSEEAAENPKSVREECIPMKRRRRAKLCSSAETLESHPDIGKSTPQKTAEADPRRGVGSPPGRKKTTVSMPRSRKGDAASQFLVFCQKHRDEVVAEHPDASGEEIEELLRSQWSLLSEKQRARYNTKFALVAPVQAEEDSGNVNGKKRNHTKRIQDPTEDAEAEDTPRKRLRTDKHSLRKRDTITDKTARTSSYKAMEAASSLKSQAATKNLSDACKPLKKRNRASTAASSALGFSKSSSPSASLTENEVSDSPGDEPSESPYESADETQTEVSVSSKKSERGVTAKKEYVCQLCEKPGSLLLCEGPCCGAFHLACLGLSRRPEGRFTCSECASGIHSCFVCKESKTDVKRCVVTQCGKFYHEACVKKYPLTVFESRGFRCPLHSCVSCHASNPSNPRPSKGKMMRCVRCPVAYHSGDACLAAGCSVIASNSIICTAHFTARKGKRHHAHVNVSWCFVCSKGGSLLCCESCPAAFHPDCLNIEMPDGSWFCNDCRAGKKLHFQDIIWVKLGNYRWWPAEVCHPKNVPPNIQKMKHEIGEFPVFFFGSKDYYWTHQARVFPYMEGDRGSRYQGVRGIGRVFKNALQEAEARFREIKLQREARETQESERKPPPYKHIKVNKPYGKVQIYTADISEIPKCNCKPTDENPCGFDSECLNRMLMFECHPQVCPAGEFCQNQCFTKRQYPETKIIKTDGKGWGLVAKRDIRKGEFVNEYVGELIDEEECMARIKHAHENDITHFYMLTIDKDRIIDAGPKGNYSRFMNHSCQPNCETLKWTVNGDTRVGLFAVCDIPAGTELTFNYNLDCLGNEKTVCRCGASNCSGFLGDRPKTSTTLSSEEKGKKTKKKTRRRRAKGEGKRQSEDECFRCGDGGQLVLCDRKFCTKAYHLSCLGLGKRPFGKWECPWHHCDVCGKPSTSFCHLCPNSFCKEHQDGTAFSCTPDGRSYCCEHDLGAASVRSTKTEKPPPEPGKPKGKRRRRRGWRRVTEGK
# [3] = molecular target: T2, Insulin-degrading enzyme (Homo sapiens, UniProt P14735); assay: Dose Response: Fluorescence polarization-based cell-based high throughput dose response assay for inhibitors of insulin-degrading enzyme (IDE). [Related pubchem assays: 434962 (Primary screen (IDE inhibitors in singlicate)), 449730 (Counterscreen (Cytotoxicity in triplicate)), 435028 (Confirmation (IDE inhibitors in triplicate)), 434984 (Summary …; format: functional
# T2 sequence (P14735 whole entry): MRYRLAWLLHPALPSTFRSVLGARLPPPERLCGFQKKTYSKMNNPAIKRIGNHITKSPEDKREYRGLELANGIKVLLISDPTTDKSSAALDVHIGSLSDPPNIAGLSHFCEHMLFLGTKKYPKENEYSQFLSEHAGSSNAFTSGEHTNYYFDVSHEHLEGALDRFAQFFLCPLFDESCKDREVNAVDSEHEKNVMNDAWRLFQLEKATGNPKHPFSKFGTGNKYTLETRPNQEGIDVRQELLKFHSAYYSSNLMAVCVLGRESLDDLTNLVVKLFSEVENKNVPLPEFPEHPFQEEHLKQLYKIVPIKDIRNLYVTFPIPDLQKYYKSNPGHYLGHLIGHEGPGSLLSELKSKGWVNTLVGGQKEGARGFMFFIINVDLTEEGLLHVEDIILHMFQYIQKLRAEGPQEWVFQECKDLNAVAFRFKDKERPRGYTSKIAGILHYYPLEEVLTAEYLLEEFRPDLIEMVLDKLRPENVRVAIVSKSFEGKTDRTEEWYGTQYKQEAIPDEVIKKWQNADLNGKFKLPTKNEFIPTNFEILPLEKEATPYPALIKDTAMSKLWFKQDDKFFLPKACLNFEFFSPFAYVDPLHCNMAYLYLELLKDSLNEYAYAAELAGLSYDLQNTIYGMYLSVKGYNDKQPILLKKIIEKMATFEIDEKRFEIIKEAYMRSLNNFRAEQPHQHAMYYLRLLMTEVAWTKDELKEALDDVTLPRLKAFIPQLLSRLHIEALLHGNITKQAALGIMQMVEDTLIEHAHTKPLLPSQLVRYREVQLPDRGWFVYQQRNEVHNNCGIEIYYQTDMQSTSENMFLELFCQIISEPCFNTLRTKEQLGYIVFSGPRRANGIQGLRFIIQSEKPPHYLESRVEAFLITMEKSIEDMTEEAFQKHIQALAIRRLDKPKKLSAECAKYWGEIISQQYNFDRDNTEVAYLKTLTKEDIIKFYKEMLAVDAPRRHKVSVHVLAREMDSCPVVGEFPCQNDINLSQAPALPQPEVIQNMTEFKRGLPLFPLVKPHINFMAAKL
# [4] = molecular target: Transitional endoplasmic reticulum ATPase (Homo sapiens, UniProt P55072, C522A); assay: C522A mutant p97 ATPase inhibitors, dose response, counter-screen for p97 inhibitor project, biochemical, luminescence (AID 1544)
# [5] = molecular target: Kallikrein-7 (Homo sapiens, UniProt P49862); assay: Fluorescence Intensity-based biochemical primary high throughput dose response assay to identify activators of kallikrein-7 (K7) zymogen.
# [6] = molecular target: T3, Aminopeptidase N (Plasmodium falciparum FcB1/Columbia, UniProt O96935); assay: malaria alanyl aminopeptidase activity blockers – biochemical, fluorogenic H-Leu-NHMec substrate, 1536-well (AID 1445); parameters: species or system Plasmodium falciparum 3D7, 3D7
# T3 sequence (O96935 whole entry): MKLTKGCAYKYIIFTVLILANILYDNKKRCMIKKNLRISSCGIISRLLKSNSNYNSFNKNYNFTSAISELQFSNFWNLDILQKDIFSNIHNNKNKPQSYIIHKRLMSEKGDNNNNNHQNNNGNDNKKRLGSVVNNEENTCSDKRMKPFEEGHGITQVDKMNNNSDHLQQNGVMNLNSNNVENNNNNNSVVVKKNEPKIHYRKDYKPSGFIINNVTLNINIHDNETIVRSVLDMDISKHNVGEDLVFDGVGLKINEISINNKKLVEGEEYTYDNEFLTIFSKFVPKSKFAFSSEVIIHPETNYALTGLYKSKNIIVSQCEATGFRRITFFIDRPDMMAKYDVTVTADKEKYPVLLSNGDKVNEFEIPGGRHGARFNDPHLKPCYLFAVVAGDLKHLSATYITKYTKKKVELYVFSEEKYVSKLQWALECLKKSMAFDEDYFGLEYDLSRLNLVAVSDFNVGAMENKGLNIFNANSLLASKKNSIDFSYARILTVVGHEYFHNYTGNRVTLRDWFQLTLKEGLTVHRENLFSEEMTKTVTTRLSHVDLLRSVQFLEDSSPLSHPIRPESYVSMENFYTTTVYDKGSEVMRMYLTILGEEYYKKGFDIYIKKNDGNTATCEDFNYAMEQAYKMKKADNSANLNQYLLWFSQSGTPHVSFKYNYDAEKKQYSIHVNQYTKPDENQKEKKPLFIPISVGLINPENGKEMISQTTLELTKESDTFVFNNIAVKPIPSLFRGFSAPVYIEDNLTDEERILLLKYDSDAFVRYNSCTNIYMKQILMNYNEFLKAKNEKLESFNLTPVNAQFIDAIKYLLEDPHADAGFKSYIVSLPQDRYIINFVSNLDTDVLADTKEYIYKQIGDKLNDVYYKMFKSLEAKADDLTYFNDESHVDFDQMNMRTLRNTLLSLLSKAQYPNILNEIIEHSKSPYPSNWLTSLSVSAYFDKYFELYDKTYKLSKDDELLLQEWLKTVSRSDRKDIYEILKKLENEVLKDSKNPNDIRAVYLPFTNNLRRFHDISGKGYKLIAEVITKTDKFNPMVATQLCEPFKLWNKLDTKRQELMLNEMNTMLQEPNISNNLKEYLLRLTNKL
# [7] = molecular target: Transitional endoplasmic reticulum ATPase (Homo sapiens, UniProt P55072); assay: p97 ATPase inhibitors, dose response, biochemical (AID 1534)
# [8] = blockers of HIV-1 envelope-mediated cell-cell fusion – cherry-pick, dose response (AID 652057); format: functional, cell-based
# [9] = inhibition of Env-driven cell fusion – HIV entry, plate reader, dry powder, dose response (AID 687023); format: functional, cell-based
# [10] = P. falciparum Dd2 growth inhibitors, dose response, SYBR Green, cherry-picked samples (AID 1159567); format: functional, cell-based
# [11] = HIV-1 AD8 envelope cell-cell fusion blockers – cherry-pick, dose response (AID 652062); format: functional, cell-based;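 further: luciferase signal from cell-cell fusion driven by HIV-1 clade B AD8 Env; potency is for inhibitors of fusion seen as a drop in luminescence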
# [12] = viability loss in CEM21 cells – cell-based, CellTiter-Glo luminescence, cherry-picked, cytotoxicity control for viral fusion inhibitor project, dose response (AID 652042); format: functional;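 further: potency for signal decrease meaning cytotoxicity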
# [13] = toxicity to human hepatoma HepG2 cells – cell-based, cherry-picked samples, cytotoxicity control, dose response (AID 1159577); format: functional
# [14] = PAX5 cellular inhibition readout – cell-based, plate reader, dry powder samples, selectivity assay for PAX8 inhibitor project, dose response (AID 743047); format: functional;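 further: HEK293 cells carrying a Pax5 driven CD19 promoter luciferase reporter; potency of inhibitors that lower reporter luminescence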
# [15] = OV-90 cell viability loss – plate reader, dry powder, SA8, PAX8 inhibitor project, dose response (AID 743149); format: functional, cell-based
# [16] = molecular target: Paired box protein Pax-8 (Homo sapiens, UniProt Q06710); assay: PAX8 transcriptional activity inhibition in RMG-I – RMG-I cells, luciferase, cherry-pick, dose response (AID 687027); format: functional, cell-based;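 further: luciferase reporter driven by Pax8 target thyroperoxidase promoter measured by SteadyGlo luminescence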
# [17] = COV434 cell viability loss – plate reader, dry powder, SA7, cytotoxicity control for PAX8 inhibitor project, dose response (AID 743145); format: functional, cell-based
# [18] = general mammalian cell viability loss – activator set, cherry-pick, cytotoxicity control for miR-122 modulator project, dose response (AID 720690); format: functional, cell-based;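 further: HEK293T human cells scored for general mammalian cytotoxicity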
# [19] = OVCAR8 cell viability loss – plate reader, dry powder samples, PAX8 project, dose response (AID 743197); format: functional, cell-based; conditions: OVCAR-8
# [20] = CMV-driven luciferase expression suppression in HEK293 – cell-based, luminescence, dry powder, counter-screen for Pax8 inhibitor project, dose response (AID 743020); format: functional
# [21] = PAX8-dependent cell viability loss – plate reader, dry powder, dose response (AID 743049); format: functional, cell-based
# [22] = inhibitors acting on PAX2 in cells – cell-based, plate reader, dry powder samples, selectivity assay for PAX8 inhibitor project, dose response (AID 743048); format: functional;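 further: HEK293 cells carrying a WT1 promoter luciferase reporter driven by expressed Pax2; potency is for inhibition of Pax2 driven reporter signal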
# [23] = molecular target: NAD-dependent protein deacylase sirtuin-5, mitochondrial (Homo sapiens, UniProt Q9NXA8); assay: blockers of sirtuin-5 peptide desuccinylation – biochemical, fluorescence imaging, cherry-pick, set 6, dose response (AID 720597)
# [24] = T. cruzi growth inhibition in host cells, dose response, cell-based, plate reader, dry powder, set 2 (AID 652275); format: functional
# [25] = anti-trypanosomal activity in BESM host cells – imaging, CA-I/72 strain, bovine embryo skeletal muscle, dry powder, dose response (AID 651885); format: functional, cell-based
# [26] = Trypanosoma cruzi replication inhibitors in host cells – cell-based, plate reader, dry powder samples, dose response (AID 651845); format: functional
# Transitional endoplasmic reticulum ATPase (Homo sapiens, UniProt P55072), sequence (P55072 whole entry, the tested form may be a part): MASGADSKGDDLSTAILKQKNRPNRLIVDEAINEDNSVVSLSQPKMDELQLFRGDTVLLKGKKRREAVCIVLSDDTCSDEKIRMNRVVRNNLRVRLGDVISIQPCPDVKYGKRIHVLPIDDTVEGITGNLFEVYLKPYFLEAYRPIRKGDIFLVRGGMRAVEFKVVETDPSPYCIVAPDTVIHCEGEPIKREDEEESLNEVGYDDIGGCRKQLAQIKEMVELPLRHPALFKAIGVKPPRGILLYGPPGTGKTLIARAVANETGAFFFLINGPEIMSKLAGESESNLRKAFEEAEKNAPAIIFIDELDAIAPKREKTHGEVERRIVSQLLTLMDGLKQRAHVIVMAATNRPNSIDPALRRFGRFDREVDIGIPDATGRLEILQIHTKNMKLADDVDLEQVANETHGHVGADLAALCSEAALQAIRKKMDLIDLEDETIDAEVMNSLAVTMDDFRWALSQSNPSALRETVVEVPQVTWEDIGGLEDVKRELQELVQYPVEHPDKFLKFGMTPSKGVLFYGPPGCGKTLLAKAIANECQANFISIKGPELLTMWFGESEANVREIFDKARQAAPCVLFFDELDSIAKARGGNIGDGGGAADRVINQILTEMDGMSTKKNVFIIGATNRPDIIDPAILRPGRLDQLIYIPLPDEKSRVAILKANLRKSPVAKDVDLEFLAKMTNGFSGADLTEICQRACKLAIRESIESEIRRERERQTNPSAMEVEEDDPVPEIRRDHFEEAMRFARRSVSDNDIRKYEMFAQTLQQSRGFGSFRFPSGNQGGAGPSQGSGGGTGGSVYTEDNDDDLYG
# Paired box protein Pax-8, sequence (Q06710 whole entry): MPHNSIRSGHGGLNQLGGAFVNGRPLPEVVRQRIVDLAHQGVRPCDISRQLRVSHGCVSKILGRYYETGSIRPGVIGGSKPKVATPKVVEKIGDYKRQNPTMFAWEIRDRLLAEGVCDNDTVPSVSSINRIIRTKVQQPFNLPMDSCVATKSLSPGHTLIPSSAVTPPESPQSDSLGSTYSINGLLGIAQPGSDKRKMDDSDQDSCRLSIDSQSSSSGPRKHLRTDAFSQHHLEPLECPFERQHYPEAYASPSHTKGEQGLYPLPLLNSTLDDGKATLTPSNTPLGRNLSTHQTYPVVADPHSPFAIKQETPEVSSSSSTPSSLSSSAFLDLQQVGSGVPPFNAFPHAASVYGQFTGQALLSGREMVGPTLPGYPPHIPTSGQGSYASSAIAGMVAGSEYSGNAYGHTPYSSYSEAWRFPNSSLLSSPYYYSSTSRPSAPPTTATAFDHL
# NAD-dependent protein deacylase sirtuin-5, mitochondrial, sequence (Q9NXA8 whole entry): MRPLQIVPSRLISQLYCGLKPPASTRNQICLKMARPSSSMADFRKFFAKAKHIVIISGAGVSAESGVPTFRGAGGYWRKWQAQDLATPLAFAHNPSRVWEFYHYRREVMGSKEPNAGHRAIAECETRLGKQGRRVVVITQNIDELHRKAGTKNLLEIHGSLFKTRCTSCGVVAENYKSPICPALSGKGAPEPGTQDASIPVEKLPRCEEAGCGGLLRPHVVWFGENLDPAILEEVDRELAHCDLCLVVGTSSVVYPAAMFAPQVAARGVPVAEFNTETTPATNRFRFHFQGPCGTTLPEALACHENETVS
# Kallikrein-7, sequence (P49862 whole entry): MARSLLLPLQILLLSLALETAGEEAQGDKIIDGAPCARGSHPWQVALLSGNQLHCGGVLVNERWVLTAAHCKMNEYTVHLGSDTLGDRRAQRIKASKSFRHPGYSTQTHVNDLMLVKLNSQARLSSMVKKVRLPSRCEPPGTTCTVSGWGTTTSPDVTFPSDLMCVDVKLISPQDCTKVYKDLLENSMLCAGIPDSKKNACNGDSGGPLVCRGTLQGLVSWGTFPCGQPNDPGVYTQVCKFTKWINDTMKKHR
# Transitional endoplasmic reticulum ATPase (Homo sapiens, UniProt P55072, C522A), sequence (P55072 2-806 C522A limits assumed): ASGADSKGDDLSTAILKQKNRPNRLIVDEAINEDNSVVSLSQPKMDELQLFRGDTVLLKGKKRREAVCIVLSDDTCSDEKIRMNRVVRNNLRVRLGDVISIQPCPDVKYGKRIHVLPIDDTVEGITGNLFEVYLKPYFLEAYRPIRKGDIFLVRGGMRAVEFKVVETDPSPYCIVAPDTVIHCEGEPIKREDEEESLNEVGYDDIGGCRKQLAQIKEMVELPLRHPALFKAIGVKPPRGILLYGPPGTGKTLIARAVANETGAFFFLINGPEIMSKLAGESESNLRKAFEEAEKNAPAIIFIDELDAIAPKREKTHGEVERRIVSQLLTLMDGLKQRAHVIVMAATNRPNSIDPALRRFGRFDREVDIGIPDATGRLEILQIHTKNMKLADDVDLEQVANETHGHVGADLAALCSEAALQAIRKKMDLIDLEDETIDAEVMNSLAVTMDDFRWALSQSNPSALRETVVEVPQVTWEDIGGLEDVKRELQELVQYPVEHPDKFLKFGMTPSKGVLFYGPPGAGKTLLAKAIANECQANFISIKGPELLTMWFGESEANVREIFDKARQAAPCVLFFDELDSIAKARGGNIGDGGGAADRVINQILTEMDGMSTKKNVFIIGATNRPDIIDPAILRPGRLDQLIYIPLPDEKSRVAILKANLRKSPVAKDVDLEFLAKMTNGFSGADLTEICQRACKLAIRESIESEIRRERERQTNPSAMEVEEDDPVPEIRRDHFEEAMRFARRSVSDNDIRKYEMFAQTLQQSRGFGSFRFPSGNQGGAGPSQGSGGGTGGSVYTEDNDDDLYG
smiles,measurement,setting,value
N=C1/C(=C\c2coc3ccccc3c2=O)C(=O)N=C2SC(c3ccncc3)=NN12,IC50,[1],30.1 µM (not active)
same,AC50,[2],18.8 µM (active)
same,IC50,[3],> 18.6 µM (not active)
same,IC50,[4],9.26 µM (active)
same,EC50,[5],> 7.72 µM (active)
same,IC50,[6],44 µM (active)
same,IC50,[7],11.1 µM (not active)
CO[C@@H]1CN(C)C(=O)c2ccc(NC(=O)Nc3cccc(F)c3)cc2OC[C@@H](C)N(C(=O)Nc2cccc(F)c2)C[C@H]1C,AC50,[8],3.17 µM (active)
same,AC50,[9],8.94 µM (active)
same,AC50,[10],3.07 µM (active)
same,AC50,[11],61 µM (active)
same,AC50,[12],61.4 µM (active)
same,AC50,[13],> 42 µM (inactive)
C[C@H](CO)N1C[C@H](C)[C@@H](CN(C)Cc2ccc(C(F)(F)F)cc2)Oc2ccc(NS(=O)(=O)c3ccc(Cl)cc3)cc2CC1=O,AC50,[14],29.8 µM (active)
same,AC50,[15],39 µM (active)
same,AC50,[16],11.2 µM (active)
same,AC50,[17],37.7 µM (active)
same,AC50,[18],12.9 µM (active)
same,AC50,[19],> 70 µM (inactive)
same,AC50,[20],41.8 µM (active)
same,AC50,[21],21.9 µM (active)
same,AC50,[22],28.6 µM (active)
CO[C@H]1CN(C)C(=O)c2ccc(NC(=O)C3CC3)cc2OC[C@@H](C)N(C(=O)c2ccccc2F)C[C@H]1C,AC50,[23],> 30 µM (inactive)
C[C@@H]1CN([C@@H](C)CO)C(=O)c2cccc(NC(=O)c3ccncc3)c2O[C@H]1CN(C)Cc1cccc(Cl)c1,AC50,[24],0.0169 µM (active)
same,IC50,[25],0.0074 µM (active)
same,AC50,[26],0.0706 µM (active)
